Publication PMC8617627, “Novel DYRK1A Inhibitor Rescues Learning and Memory Deficits in a Mouse Model of Down Syndrome” (Pharmaceuticals, 2021)
Read-outs that look alike come from different tables or passages of the source.

Tests used:
Experiment in all cases: Kinase profile (33P ATP filter binding)
Type in all cases: biochemical
Conditions in all cases: read-out: Remaining protein kinase activity
PRK2 = PRK2 (Homo sapiens, UniProt Q16513)
EPH-B4 = molecular target: T1, EPH-B4 (Homo sapiens, UniProt P54760)
T1 sequence (P54760 16-987): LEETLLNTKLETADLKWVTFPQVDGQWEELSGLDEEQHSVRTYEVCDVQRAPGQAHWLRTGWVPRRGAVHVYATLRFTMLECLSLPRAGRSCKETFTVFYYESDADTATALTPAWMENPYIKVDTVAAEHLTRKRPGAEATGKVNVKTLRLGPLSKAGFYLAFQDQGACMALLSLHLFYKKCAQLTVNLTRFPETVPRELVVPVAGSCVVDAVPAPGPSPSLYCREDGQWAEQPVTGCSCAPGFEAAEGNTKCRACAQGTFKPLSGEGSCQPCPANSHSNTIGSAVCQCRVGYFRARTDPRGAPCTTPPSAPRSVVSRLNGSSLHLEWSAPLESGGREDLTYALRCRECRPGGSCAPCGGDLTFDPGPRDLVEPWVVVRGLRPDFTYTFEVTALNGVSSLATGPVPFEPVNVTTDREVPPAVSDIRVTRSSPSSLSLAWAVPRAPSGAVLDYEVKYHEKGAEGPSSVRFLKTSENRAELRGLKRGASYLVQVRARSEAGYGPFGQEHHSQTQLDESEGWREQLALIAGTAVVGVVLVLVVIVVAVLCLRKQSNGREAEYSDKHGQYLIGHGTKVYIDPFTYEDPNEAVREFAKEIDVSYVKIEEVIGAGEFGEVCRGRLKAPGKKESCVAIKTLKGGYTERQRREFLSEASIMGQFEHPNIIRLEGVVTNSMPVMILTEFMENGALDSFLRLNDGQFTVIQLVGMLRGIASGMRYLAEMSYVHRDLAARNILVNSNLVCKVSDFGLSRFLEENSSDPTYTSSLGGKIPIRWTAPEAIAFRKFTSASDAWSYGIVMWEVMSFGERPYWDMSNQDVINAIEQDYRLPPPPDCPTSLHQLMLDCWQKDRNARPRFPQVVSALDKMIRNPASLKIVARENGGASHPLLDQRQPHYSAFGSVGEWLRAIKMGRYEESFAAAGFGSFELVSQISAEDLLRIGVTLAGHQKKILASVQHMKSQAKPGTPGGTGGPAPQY

TrkA = TrkA (Homo sapiens, UniProt P04629)
TrkA, sequence (P04629 33-796): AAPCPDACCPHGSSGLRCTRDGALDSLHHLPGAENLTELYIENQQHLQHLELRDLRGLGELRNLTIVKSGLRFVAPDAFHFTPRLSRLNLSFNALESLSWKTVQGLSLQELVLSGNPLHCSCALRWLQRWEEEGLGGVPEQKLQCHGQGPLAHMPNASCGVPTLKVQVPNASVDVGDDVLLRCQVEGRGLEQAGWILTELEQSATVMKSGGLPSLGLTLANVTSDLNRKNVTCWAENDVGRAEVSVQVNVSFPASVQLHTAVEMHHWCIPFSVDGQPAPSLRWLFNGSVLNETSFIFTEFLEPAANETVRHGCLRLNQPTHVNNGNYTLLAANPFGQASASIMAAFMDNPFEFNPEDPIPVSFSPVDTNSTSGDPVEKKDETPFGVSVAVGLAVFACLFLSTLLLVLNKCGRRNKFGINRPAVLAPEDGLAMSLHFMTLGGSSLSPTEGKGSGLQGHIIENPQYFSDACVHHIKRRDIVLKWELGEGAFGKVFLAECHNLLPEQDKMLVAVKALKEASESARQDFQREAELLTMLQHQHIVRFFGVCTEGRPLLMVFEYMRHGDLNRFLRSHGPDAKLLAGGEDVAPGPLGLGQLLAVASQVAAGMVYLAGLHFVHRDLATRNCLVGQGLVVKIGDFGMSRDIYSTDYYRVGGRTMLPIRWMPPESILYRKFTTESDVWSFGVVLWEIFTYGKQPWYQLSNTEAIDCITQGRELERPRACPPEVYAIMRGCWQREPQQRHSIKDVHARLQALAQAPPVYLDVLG

NEK2a = molecular target: T2, NEK2a (Homo sapiens, UniProt P51955)
T2 sequence (P51955 1-445): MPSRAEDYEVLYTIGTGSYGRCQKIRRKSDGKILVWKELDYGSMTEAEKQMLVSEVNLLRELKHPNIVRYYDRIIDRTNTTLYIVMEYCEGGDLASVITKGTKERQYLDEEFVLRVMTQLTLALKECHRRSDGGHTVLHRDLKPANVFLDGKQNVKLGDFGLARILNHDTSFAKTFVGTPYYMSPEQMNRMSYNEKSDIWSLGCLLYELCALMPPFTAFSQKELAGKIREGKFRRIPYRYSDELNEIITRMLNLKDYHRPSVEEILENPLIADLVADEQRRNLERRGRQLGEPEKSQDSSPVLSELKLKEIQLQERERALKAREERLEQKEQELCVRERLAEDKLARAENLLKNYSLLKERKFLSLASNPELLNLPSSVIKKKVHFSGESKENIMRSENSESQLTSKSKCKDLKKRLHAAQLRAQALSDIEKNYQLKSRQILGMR

EPH-B3 = molecular target: T3, EPH-B3 (Homo sapiens, UniProt P54753)
T3 sequence (P54753 34-998): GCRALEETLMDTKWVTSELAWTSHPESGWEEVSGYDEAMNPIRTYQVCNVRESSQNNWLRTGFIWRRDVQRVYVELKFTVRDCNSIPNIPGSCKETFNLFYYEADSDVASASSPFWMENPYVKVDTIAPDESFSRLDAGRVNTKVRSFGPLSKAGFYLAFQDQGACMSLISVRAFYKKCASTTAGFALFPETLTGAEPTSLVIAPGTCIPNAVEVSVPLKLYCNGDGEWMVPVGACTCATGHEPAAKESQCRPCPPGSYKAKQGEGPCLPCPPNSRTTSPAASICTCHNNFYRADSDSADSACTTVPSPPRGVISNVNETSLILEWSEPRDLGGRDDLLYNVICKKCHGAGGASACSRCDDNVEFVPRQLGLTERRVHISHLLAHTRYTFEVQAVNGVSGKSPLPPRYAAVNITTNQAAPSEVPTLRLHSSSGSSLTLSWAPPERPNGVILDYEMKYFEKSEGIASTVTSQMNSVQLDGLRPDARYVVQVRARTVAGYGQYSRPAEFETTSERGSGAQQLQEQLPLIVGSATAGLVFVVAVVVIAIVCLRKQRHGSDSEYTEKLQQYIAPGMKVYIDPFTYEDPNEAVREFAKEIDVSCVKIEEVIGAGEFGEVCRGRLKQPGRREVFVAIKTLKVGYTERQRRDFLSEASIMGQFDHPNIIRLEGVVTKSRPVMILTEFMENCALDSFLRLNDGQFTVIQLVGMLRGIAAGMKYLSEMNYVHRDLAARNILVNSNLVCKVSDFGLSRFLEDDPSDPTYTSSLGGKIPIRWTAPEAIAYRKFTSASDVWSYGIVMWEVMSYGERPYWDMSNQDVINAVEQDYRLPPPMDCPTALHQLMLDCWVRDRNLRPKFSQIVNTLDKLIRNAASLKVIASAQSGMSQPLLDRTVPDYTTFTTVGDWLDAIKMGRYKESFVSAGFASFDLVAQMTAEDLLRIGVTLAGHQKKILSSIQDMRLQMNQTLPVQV

PRK2, sequence (Q16513 whole entry, species assumed): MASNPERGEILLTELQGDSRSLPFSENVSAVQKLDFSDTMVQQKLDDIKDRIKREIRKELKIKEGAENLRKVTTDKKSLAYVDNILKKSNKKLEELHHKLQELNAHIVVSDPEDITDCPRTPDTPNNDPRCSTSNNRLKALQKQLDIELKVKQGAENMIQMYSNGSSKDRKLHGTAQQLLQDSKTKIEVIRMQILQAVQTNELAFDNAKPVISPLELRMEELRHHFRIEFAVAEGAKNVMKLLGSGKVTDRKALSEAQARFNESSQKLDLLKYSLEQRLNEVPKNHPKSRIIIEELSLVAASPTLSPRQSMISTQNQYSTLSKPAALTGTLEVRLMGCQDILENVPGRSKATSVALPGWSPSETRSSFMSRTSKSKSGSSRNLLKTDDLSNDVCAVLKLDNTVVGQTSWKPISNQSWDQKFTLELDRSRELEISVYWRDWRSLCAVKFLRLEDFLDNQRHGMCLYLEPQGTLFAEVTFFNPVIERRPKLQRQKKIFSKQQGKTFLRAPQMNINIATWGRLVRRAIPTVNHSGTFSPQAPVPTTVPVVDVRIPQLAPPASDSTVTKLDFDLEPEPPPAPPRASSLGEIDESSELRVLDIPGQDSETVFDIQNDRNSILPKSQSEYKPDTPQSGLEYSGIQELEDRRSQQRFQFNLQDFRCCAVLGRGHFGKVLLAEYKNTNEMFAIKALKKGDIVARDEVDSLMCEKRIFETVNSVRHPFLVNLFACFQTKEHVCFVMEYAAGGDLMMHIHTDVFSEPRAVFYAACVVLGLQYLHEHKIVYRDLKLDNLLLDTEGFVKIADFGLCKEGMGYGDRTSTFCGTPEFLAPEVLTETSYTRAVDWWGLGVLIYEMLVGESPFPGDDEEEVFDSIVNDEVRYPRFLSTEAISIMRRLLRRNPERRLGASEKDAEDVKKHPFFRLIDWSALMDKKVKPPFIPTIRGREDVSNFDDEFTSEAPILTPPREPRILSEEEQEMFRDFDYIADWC

SMILES | remaining activity at 1 µM (PRK2) | remaining activity at 100 µM (PRK2) | remaining activity at 100 µM (EPH-B4) | remaining activity at 1 µM (TrkA) | remaining activity at 100 µM (TrkA) | remaining activity at 1 µM (NEK2a) | remaining activity at 1 µM (EPH-B3) | remaining activity at 100 µM (EPH-B3) | remaining activity at 1 µM (PRK2; PRK2, 1 μM) | remaining activity at 100 µM (PRK2; PRK2, 100 μM) | remaining activity at 1 µM (EPH-B4; EPH-B4, 1 μM) | remaining activity at 100 µM (EPH-B4; EPH-B4, 100 μM) | remaining activity at 1 µM (TrkA; TrkA, 1 μM) | remaining activity at 100 µM (TrkA; TrkA, 100 μM) | remaining activity at 1 µM (NEK2a; NEK2a, 1 μM) | remaining activity at 100 µM (NEK2a; NEK2a, 100 μM) | remaining activity at 1 µM (EPH-B3; EPH-B3, 1 μM) | remaining activity at 100 µM (EPH-B3; EPH-B3, 100 μM)
COc1ccc2sc(-c3cncc(NC(C)=O)c3)nc2c1 [PST-001, N-(5-(5-Methoxybenzo[d]thiazol-2-yl)pyridin-3-yl)acetamide] | 102% | 101% | 130% | 111% | 45% | 119% | 147% | 130% | – | – | – | – | – | – | – | – | – | –
COc1ccc2sc(-c3cncc(N)c3)nc2c1 [compound 1, 5-(5-Methoxybenzo[d]thiazol-2-yl)pyridin-3-amine] | – | – | – | – | – | – | – | – | 103% | 74% | 112% | 97% | 104% | 33% | 111% | 51% | 130% | 71%
